Experimental data as given in paper PMC7280531, “A PROTAC peptide induces durable β-catenin degradation and suppresses Wnt-dependent intestinal cancer” (Cell Discovery, 2020).
pKd: −log10 of the molar value. Where a SMILES comes first, the peptide text is derived from it. Bridges are numbered along the chain shown (N, C = ends). [ ]: non-standard residue; d: D form. The star is where a group is joined. R8 = C=CCCCCCC[C@@](C)(N)C(=O)O; S5 = C=CCCC[C@](C)(N)C(=O)O; Cbz = O=C(OCc1ccccc1)*; Ahx = NCCCCCC(=O)O

Tests used:
[1] = target: T1, β-catenin (Homo sapiens, UniProt P35222); assay: β-catenin immunoblotting / immunoprecipitation in HEK293T cells
T1 sequence (P35222 1-781): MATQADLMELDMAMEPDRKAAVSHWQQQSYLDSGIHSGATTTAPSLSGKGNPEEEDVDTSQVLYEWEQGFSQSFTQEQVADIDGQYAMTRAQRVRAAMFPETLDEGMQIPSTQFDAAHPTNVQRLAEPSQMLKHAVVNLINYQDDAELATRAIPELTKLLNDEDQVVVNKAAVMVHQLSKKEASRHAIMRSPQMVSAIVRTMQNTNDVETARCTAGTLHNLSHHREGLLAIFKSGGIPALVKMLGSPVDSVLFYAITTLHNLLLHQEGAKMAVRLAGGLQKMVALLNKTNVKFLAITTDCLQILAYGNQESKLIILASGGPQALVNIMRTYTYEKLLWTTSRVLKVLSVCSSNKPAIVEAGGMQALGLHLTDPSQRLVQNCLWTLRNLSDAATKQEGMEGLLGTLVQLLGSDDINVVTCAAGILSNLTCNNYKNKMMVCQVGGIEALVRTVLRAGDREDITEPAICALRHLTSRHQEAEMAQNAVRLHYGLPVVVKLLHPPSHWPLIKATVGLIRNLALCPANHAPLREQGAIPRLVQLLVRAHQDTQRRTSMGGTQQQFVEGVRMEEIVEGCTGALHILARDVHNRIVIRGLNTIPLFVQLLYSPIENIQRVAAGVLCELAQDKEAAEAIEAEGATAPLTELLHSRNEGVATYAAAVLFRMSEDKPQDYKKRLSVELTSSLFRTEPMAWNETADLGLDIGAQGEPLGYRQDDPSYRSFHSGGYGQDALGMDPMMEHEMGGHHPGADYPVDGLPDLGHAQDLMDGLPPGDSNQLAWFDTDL
Procedure: The relative band intensity was quantified with ImageJ and normalized to GAPDH.
For immunoprecipitation, the cells were lysed in TNE lysis buffer (50 mM Tris-HCl, pH 8.0, 150 mM NaCl, 1% Nonidet P-40, and protease inhibitor cocktail). […] After 18,000×g centrifugation for 10 min, the lysates were immunoprecipitated with specific antibody and protein A-Sepharose beads and then washed the beads with TNE buffer for three times before immunoblotting.

[2] = tested on: APC^−/− organoids; assay: APC^−/− mouse intestinal organoid culture; format: cell-based; conditions: 10 μM MSAB or 50 μM xStAx-VHLL, 4 days
[3] = tested on: β-catenin; assay: β-catenin immunoblotting in colorectal cancer cells (HCT116, SW480, LoVo); format: cell-based; conditions: 50 μM xStAx-VHLL, 24 h
Procedure: Relative
β-catenin protein level was quantified with ImageJ and normalized to GAPDH. Data […]
(b) LoVo cells were treated with 50 μM xStAx (xS), 50 μM
immunoblotting. (c, d) LoVo (c) and SW480 (d) cells were treated with different

[4] = target: T2, β-catenin (133-665) (Homo sapiens, UniProt P35222); assay: Isothermal titration calorimetry (ITC) of peptides with purified β-catenin
T2 sequence (P35222 133-665): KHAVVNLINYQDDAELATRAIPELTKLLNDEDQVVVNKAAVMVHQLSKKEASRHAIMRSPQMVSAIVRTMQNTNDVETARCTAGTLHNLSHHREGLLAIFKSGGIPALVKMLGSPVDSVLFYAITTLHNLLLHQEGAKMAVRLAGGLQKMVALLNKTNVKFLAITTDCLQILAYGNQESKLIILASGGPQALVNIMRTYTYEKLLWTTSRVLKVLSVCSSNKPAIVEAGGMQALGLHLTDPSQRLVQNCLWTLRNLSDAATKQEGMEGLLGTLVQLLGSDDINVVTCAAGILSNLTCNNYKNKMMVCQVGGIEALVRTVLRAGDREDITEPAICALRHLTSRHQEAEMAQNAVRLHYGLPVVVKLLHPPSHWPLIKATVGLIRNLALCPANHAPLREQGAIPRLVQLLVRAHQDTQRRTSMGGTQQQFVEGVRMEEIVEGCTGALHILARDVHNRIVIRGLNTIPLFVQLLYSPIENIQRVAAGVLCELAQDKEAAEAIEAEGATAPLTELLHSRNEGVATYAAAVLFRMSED
Procedure: The binding ability of the peptides with purified
β-catenin protein in vitro.
(a) Isothermal titration calorimetry (ITC) analysis to measure the interaction between
Biotinylated peptides were incubated with streptavidin beads and then employed to
The input β-catenin protein level
was stained with Coomassie brilliant blue. The pulled down β-catenin was
immunoblotted with anti-His antibody, and relative band intensity was quantified.

[5] = cited from earlier work
Description: Peptide stapling chemistry developed by Verdine and coworkers, takes advantage of ruthenium-catalyzed metathesis to crosslink the side chains of paired anchoring residues at suitable positions, and has been successfully applied to design various peptide inhibitors with improved proteolytic stability, membrane permeability, and thus biological activity[11],[12]. Modeled after the same Axin-derived peptide motif, we and Verdine la ... || There is more space for the improvement of the working efficacy of xStAx-VHLL. The VHL peptide ligand inserted in this study consists of natural amino acids, which could be degraded once the PROTAC peptide enters the cell. Non-natural residues substitution instead of original ones, such as reported hydroxyproline to replace regular proline[31],[32], could be an effective approach to enhance the proteolytic resistance of PROTAC. It was previously reported that peptide double-stapling at both N-terminals and C-terminals rather than single stapling conferred striking protease resistance upon the ...

Compound: CC(C)C[C@@H](C=O)NC(=O)[C@H](CC(C)C)NC(=O)[C@H](CC(C)C)NC(=O)OCc1ccccc1 [MG132, reference compound] (Cbz-Leu-Leu-Leu-aldehyde)
- effect of proteasome inhibitor on xStAx-VHLL-induced β-catenin degradation ([1]; peptides 70 μM and MG132 10 μM, 16 h): blocked β-catenin degradation

Compound: COC(=O)c1cccc(NS(=O)(=O)c2ccc(C)cc2)c1 [MSAB, reference compound]
- APC^−/− organoid survival, MSAB versus xStAx-VHLL [2]: minimal effect
- β-catenin protein level, MSAB versus xStAx-VHLL ([3]; HCT116 and SW480, 10 μM MSAB): decreased β-catenin protein to a comparable level
- β-catenin protein level, MSAB versus xStAx-VHLL ([3]; LoVo, 10 μM MSAB): had no effect
- β-catenin protein level, MSAB versus xStAx-VHLL ([1]; 10 μM MSAB, 50 μM xStAx-VHLL (legend: 70 μM, Wnt3a CM), 24 h): decreased β-catenin protein to a comparable level
- β-catenin level after wash-out of the drug ([1]; MSAB 10 μM or xStAx-VHLL 70 μM 24 h, then fresh medium 24 or 48 h): restored after 24 h

Compound: CC[C@H](C)[C@@H]1NC(=O)[C@](C)(NC(=O)[C@H](CCC(N)=O)NC(=O)[C@@H]2CCCN2C(C)=O)CCCCCCC=CCCC[C@@](C)(C(=O)N[C@@H](CCCNC(=N)N)C(=O)N[C@H](C(=O)N[C@@H](CCSC)C(=O)N[C@@H](CCCCN)C(N)=O)C(C)C)NC(=O)[C@H](C(C)C)NC(=O)[C@H](Cc2c[nH]cn2)NC(=O)[C@H](CCC(N)=O)NC(=O)[C@H](CC(=O)O)NC(=O)[C@H](CC(C)C)NC1=O [SAHPA1, reference compound] (Ac-PQ[R8]ILDQHV[S5]RVMK-NH2; staple 3-10)
- pKd [4]: 4.42
- ability to penetrate the cell membrane [5]: capable of penetrating the cell membrane

Compound: CC[C@H](C)[C@@H]1NC(=O)[C@](C)(NC(=O)[C@H](CCC(N)=O)NC(=O)[C@@H]2CCCN2C(C)=O)CCCCCCC=CCCC[C@@](C)(C(=O)N[C@@H](CCCNC(=N)N)C(=O)N[C@H](C(=O)N[C@@H](CCSC)C(=O)N[C@@H](CCCCN)C(=O)NCCCCCC(=O)N[C@@H](C)C(=O)N[C@@H](CC(C)C)C(=O)N[C@@H](C)C(=O)N2CCC[C@H]2C(=O)N[C@@H](Cc2ccc(O)cc2)C(=O)N[C@H](C(=O)N2CCC[C@H]2C(N)=O)[C@@H](C)CC)C(C)C)NC(=O)[C@H](C(C)C)NC(=O)[C@H](Cc2c[nH]cn2)NC(=O)[C@H](CCC(N)=O)NC(=O)[C@H](CC(=O)O)NC(=O)[C@H](CC(C)C)NC1=O [SAHPA1-VHLL] (Ac-PQ[R8]ILDQHV[S5]RVMK[Ahx]ALAPYIP-NH2; staple 3-10)
- pKd [4]: 4.26

Compound: Cc1ncsc1-c1ccc(CNC(=O)[C@@H]2C[C@@H](O)CN2C(=O)[C@@H](NC(=O)C2(C#N)CC2)C(C)(C)C)cc1 [VH-298, reference compound]
- effect of VHL ligase inhibitor on xStAx-VHLL-mediated β-catenin degradation ([3]; LoVo, 100 μM inhibitor): blocked it
- effect of VHL ligase inhibitor on xStAx-VHLL-mediated β-catenin degradation ([1]; Wnt3a CM, 70 μM xStAx-VHLL, 100 μM inhibitor, 24 h): blocked it

Compound: CC[C@H](C)[C@@H]1NC(=O)[C@@](C)(NC(=O)[C@H](CCCNC(=N)N)NC(=O)[C@@H]2CCCN2C(=O)[C@H](Cc2c[nH]c3ccccc23)NC(=O)[C@H](CCCNC(=N)N)NC(=O)[C@H](CCCNC(=N)N)NC(C)=O)CCCC=CCCC[C@@](C)(C(=O)N[C@@H](Cc2c[nH]cn2)C(=O)N[C@H](C(=O)N[C@@H](CCCNC(=N)N)C(=O)N[C@@H](CCCNC(=N)N)C(=O)N[C@H](C(=O)N[C@@H](Cc2c[nH]c3ccccc23)C(=O)N[C@@H](CCCNC(=N)N)C(N)=O)C(C)C)C(C)C)NC(=O)[C@H](CC(=O)O)NC(=O)[C@H](CC(C)C)NC1=O [xStAx] (Ac-RRWPR[S5]ILD[S5]HVRRVWR-NH2; staple 6-10)
- ability to penetrate the cell membrane [5]: capable of penetrating the cell membrane
